Measured values taken from US8076487B2, “Pyridone derivative and herbicide” (Kumiai Chemical Industry Co., Ltd., priority 2006, dated 2011).

How the values were obtained:
Assay type in all cases: in vivo
[1] = system: slender amaranth (Amaranthus viridis L.); assay: Test Example 3: herbicidal effect by application to upland field (foliage treatment); conditions: foliage treatment, plants grown two weeks, 1,000 g active ingredient per hectare, 14th day after application
Outline: (§1)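 Field-soil pots sown with the four weed species and grown two weeks in a greenhouse, then sprayed over the whole plant with wettable powder in water at 1,000 g active ingredient/ha in 1,000 L/ha. Herbicidal effect scored against a rating standard 14 days after treatment.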

[2] = system: barnyardgrass (Echinochloa crus-galli (L.) P. Beauv. var. crus-galli); assay: as above; conditions: foliage treatment, plants grown two weeks, 1,000 g active ingredient per hectare, 14th day after application
Outline: as §1

[3] = system: velvetleaf (Abutilon theophrasti medicus); assay: as above; conditions: foliage treatment, plants grown two weeks, 1,000 g active ingredient per hectare, 14th day after application
Outline: as §1

[4] = system: green foxtail (Setaria viridis (L.) P. Beauv.); assay: as above; conditions: foliage treatment, plants grown two weeks, 1,000 g active ingredient per hectare, 14th day after application
Outline: as §1

[5] = system: early watergrass (Echinochloa oryzicola Vasing); assay: Test Example 1: herbicidal effect by soil application to paddy field; conditions: paddy field soil application; active ingredient 1,000 g per 1 hectare; wettable powder added dropwise to water surface the day after sowing; examined on the 21st day after application
Outline: (§2)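 Plants were sown in flooded (3 cm) paddy soil and evaluated for herbicidal effect 21 days after soil application in a greenhouse.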

[6] = system: Japanese bulrush (Scirpus juncoides Roxb.); assay: as above; conditions: paddy field soil application; active ingredient 1,000 g per 1 hectare; wettable powder added dropwise to water surface the day after sowing; examined on the 21st day after application
Outline: as §2

[7] = system: heartshape false pickerelweed (Monochoria vaginalis (Burm.f.) C.Presl); assay: as above; conditions: paddy field soil application; active ingredient 1,000 g per 1 hectare; wettable powder added dropwise to water surface the day after sowing; examined on the 21st day after application
Outline: as §2

[8] = system: slender amaranth (Amaranthus viridis L.); assay: Test Example 2: herbicidal effect by soil application to upland field; conditions: soil surface spray, upland field soil, 1,000 g active ingredient per hectare, 21st day after application
Outline: (§3)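 Dose was 1,000 g active ingredient per hectare, applied as a wettable powder diluted in water and sprayed evenly over the soil of sown, covered pots at a 1,000 L/ha equivalent. Effect was judged by a standard scale 21 d later under greenhouse conditions.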

[9] = system: barnyardgrass (Echinochloa crus-galli (L.) P. Beauv. var. crus-galli); assay: as above; conditions: soil surface spray, upland field soil, 1,000 g active ingredient per hectare, 21st day after application
Outline: as §3

[10] = system: velvetleaf (Abutilon theophrasti medicus); assay: as above; conditions: soil surface spray, upland field soil, 1,000 g active ingredient per hectare, 21st day after application
Outline: as §3

[11] = system: green foxtail (Setaria viridis (L.) P. Beauv.); assay: as above; conditions: soil surface spray, upland field soil, 1,000 g active ingredient per hectare, 21st day after application
Outline: as §3

Structure (SMILES) | herbicidal effect (index), Slender Amaranth [1] | herbicidal effect (index), Barnyardgrass [2] | herbicidal effect (index), Velvetleaf [3] | herbicidal effect (index), Green Foxtail [4] | herbicidal effect, Echinochloa oryzicola Vasing [5] | herbicidal effect, Scirpus juncoides Roxb. [6] | herbicidal effect, Monochoria vaginalis (Burm. f.) C. Presl [7] | herbicidal effect (index), Slender Amaranth [8] | herbicidal effect (index), Barnyardgrass [9] | herbicidal effect (index), Velvetleaf [10] | herbicidal effect (index), Green Foxtail [11]
O=C1CCCC(O)=C1C(=O)c1ccc(C(F)(F)F)n(CC(F)(F)F)c1=O [I-10] | 5 (90% or more of herbicidal effect and crop phytotoxicity) | 5 (90% or more of herbicidal effect and crop phytotoxicity) | 5 (90% or more of herbicidal effect and crop phytotoxicity) | 4 (70 to less than 90% of herbicidal effect and crop phytotoxicity) | 5 (90% or more of herbicidal effect and crop phytotoxicity) | 5 (90% or more of herbicidal effect and crop phytotoxicity) | 5 (90% or more of herbicidal effect and crop phytotoxicity) | 3 (50 to less than 70% of herbicidal effect and crop phytotoxicity) | 5 (90% or more of herbicidal effect and crop phytotoxicity) | 5 (90% or more of herbicidal effect and crop phytotoxicity) | 3 (50 to less than 70% of herbicidal effect and crop phytotoxicity)
C=CCn1c(C(F)(F)F)ccc(C(=O)C2=C(O)CCCC2=O)c1=O [I-11] | 5 (90% or more of herbicidal effect and crop phytotoxicity) | 5 (90% or more of herbicidal effect and crop phytotoxicity) | 5 (90% or more of herbicidal effect and crop phytotoxicity) | 5 (90% or more of herbicidal effect and crop phytotoxicity) | 5 (90% or more of herbicidal effect and crop phytotoxicity) | 5 (90% or more of herbicidal effect and crop phytotoxicity) | 5 (90% or more of herbicidal effect and crop phytotoxicity) | 5 (90% or more of herbicidal effect and crop phytotoxicity) | 5 (90% or more of herbicidal effect and crop phytotoxicity) | 5 (90% or more of herbicidal effect and crop phytotoxicity) | 4 (70 to less than 90% of herbicidal effect and crop phytotoxicity)
O=C1CCCC(O)=C1C(=O)c1ccc(C(F)(F)F)n(C2CC2)c1=O [I-16] | 5 (90% or more of herbicidal effect and crop phytotoxicity) | 5 (90% or more of herbicidal effect and crop phytotoxicity) | 5 (90% or more of herbicidal effect and crop phytotoxicity) | 5 (90% or more of herbicidal effect and crop phytotoxicity) | 5 (90% or more of herbicidal effect and crop phytotoxicity) | 5 (90% or more of herbicidal effect and crop phytotoxicity) | 5 (90% or more of herbicidal effect and crop phytotoxicity) | 5 (90% or more of herbicidal effect and crop phytotoxicity) | 5 (90% or more of herbicidal effect and crop phytotoxicity) | 5 (90% or more of herbicidal effect and crop phytotoxicity) | 5 (90% or more of herbicidal effect and crop phytotoxicity)
